This passage reports IC50 and EC50 results from patent US20220362396A1, “AMINO-PYRAZINECARBOXAMIDE COMPOUNDS, CONJUGATES, AND USES THEREOF” (Silverback Therapeutics, Inc., priority 2018, published 2022).

Some results are limits rather than exact numbers.

One test addresses T1, TGFBR2 (Homo sapiens, UniProt P37173).
T1 construct: purchased Reaction Biology Corp
The test can be described thus: TGFBR2 RBC assay (enzyme inhibition assay, Reaction Biology Corp.). Format: biochemical. As to the method: Compounds of the disclosure were also assayed by Reaction Biology Corp. using the TGFBR2 RBC assay (enzyme inhibition assay). […] NT refers to not tested.

Test [1] relates to TGFβ/SMAD Signaling Pathway SBE reporter cell line. The test can be described thus: TGFβ reporter assay, in vitro small molecule screening (luciferase). Format: cell-based. Conditions: TGFβ stimulation, luminescence. As to the method: TGFβ/SMAD Signaling Pathway SBE reporter cell line was obtained from BPS Bioscience. Cells were passed, expanded, and stored in liquid nitrogen as per the supplier's instructions with the exception that growth media is changed to DMEM-C with Geneticin (DMEM supplemented with 10% fetal bovine serum, 1×NEAA, 1 mM Pyruvate, 2 mM glutamine, 50 μg/mL penicillin, 50 U/mL streptomycin and 400 μg/mL of Geneticin). The assay media was MEM supplemented with 0.5% fetal bovine serum, 1×NEAA, 1 mM Pyruvate, 50 μg/mL penicillin and 50 U/mL streptomycin.
Test samples (at desired concentrations diluted in assay media) were added to a 96-well assay plate, 20 μL per well. Reporter cells were harvested from the tissue culture flasks by incubation in small quantity of PBS at 37° C. for two minutes after the media in the flask is removed and cells rinsed with PBS. Cells were counted and diluted in the assay media at approximately 0.5×10^6 cells/mL and then 80 μL/well of cells were added to the assay plate containing the 20 μL/well of test samples (or media only), and incubated for approximately 5-6 hours at 37° C. in a 5% CO2 humidified incubator. After that time, 15 μL of TGFβ diluted to 12 ng/mL in the assay media was added to the plate. Controls included TGFβ titration (from 50 to 0 ng/mL) without inhibitors, and media only (without cells, inhibitor or TGFβ). Plates were incubated at 37° C. in a 5% CO2 humidified incubator for 18 h. Luciferase substrate solution is subsequently added at 100 μL per well, incubated in the dark at room temperature for 15 min, and luminescence is measured using a luminometer. EC50 values and curve fits were obtained using Prism (GraphPad Software).

T1 sequence (P37173 23-567): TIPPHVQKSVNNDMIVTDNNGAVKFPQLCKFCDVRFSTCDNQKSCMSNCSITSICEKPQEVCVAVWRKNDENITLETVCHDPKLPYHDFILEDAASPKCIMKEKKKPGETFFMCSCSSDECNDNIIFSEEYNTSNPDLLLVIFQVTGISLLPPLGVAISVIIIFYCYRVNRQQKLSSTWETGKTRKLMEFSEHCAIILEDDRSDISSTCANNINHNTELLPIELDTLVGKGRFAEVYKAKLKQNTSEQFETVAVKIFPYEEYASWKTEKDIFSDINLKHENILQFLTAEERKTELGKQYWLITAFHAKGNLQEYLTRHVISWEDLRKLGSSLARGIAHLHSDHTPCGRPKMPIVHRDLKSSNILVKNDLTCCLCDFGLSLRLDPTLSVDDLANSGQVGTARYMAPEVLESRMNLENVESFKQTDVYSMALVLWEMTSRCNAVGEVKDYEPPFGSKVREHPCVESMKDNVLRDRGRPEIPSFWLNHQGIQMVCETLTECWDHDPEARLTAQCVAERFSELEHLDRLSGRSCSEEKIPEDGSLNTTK

One may read the IC50 as the midpoint of a concentration-inhibition curve. The EC50 is the concentration that produces a half-maximal response. Read a high EC50 as a less potent agent. Molecule `CC(CNC(=O)OC(C)(C)C)Oc1cccc(-c2cnc(N)c(C(=O)Nc3cnccc3N3CCOCC3)n2)c1` (stereo not shown) [Compound 191] returned an IC50 against TGFBR2 below 0.05 µM. This molecule also registered an EC50 in test [1] above 1 µM.

For `Nc1ncc(-c2ccc(CCCNC(=O)OCc3ccccc3)cc2)cc1C(=O)Nc1cnccc1N1CCOCC1` [Compound 79], the IC50 at TGFBR2 was above 1 µM. Besides, the EC50 in test [1] was in the range of 0.1 to 1 µM.

In the case of `CC(C)(C)OC(=O)N1CC(Oc2ccc(-c3cnc(N)c(C(=O)Nc4cnccc4N4CCOCC4)n3)cc2)C1` [Compound 218], the IC50 against TGFBR2 was below 0.05 µM. Further, the EC50 in test [1] was in the range of 0.05 to 0.1 µM.

At TGFBR2, `COc1ccc(-c2cnc(N)c(C(=O)Nc3cnccc3N3CCOCC3)n2)cc1OC` [Compound 158] came in with an IC50 below 0.05 µM. In test [1], this molecule displayed an EC50 of 0.1 to 1 µM.

At TGFBR2, `Nc1ncc(-c2ccccc2)nc1C(=O)Nc1cnccc1N1CCOCC1` [Compound 180] gave an IC50 of 0.05 to 0.1 µM. The EC50 in test [1] lay within 0.1 to 1 µM.

`Nc1ncc(-c2ccc(N3CCCC3)cc2)nc1C(=O)Nc1cnccc1N1CCOCC1` [Compound 262]: at TGFBR2, the IC50 was below 0.05 µM. The molecule further registered an EC50 in test [1] of 0.1 to 1 µM.

With `COc1ccc(-c2ccncc2NC(=O)c2nc(-c3ccc(CCNC(=O)OCc4ccccc4)cc3)cnc2N)cn1` [Compound 16], the IC50 at TGFBR2 was below 0.05 µM. Moreover, in test [1], the EC50 lay within 0.1 to 1 µM.

`COCCCN(C)c1ccncc1NC(=O)c1nc(-c2ccc(CCN)cc2)cnc1N` [Compound 103]: the IC50 at TGFBR2 was below 0.05 µM. Moreover, the EC50 in test [1] fell in the range of 0.1 to 1 µM.

`CC(C)(C)OC(=O)N1CCN(Cc2ccc(-c3cnc(N)c(C(=O)Nc4cnccc4N4CCOCC4)n3)cc2)CC1` [Compound 89] had an IC50 against TGFBR2 below 0.05 µM. In test [1], the concentration for a half-maximal effect (EC50) fell in the range of 0.05 to 0.1 µM.

Turning to `COC(=O)[C@@H](N)CCOc1ccc(-c2cnc(N)c(C(=O)Nc3cnccc3N3CCOCC3)n2)cc1` [Compound 263], the IC50 against TGFBR2 is below 0.05 µM. In addition, the EC50 in test [1] was in the range of 0.1 to 1 µM.

In the case of `N#Cc1ncccc1-c1ccncc1NC(=O)c1nc(-c2ccc(CCNC(=O)OCc3ccccc3)cc2)cnc1N` [Compound 13], in test [1], the EC50 was above 1 µM.

The molecule `NCCc1ccc(-c2cnc(N)c(C(=O)Nc3cnccc3N3CCOCC3CO)n2)cc1` (stereo not shown) [Compound 8] yielded an EC50 in test [1] of 0.1 to 1 µM.

In the case of `CC(C)(C)OC(=O)N[C@@H]1CCCN(c2ccc(-c3cnc(N)c(C(=O)Nc4cnccc4N4CCOCC4)n3)cc2)C1` [Compound 284], the EC50 in test [1] is 0.1 to 1 µM.

Regarding `CC(CNC(=O)CCC(C)(C)S)Oc1ccc(-c2cnc(N)c(C(=O)Nc3cnccc3N3CCOCC3)n2)cc1` (stereo not shown) [Compound 288], in test [1], the concentration giving a half-maximal response (EC50) was 0.1 to 1 µM.

Take `N#Cc1cnccc1-c1ccncc1NC(=O)c1nc(-c2ccc(CCNC(=O)OCc3ccccc3)cc2)cnc1N` [Compound 9]: the EC50 in test [1] was in the range of 0.1 to 1 µM.

The molecule `Nc1ncc(-c2ccc(CCNC(=O)OCc3ccccc3)cc2)nc1C(=O)Nc1cnccc1-n1ccnc1-c1ccccc1` [Compound 146] gave an IC50 against TGFBR2 of 0.1 to 1 µM.

The molecule `C[C@H](C(=O)O)N(C)c1ccc(-c2cnc(N)c(C(=O)Nc3cnccc3N3CCOCC3)n2)cc1` [Compound 295] had an EC50 in test [1] of 0.1 to 1 µM.

As to `Nc1ncc(-c2ccc(N3CCC[C@H](N)C3)cc2)nc1C(=O)Nc1cnccc1N1CCOCC1` [Compound 285], the EC50 in test [1] lay within 0.05 to 0.1 µM.

In test [1], `NCCN(CCO)c1ccc(-c2cnc(N)c(C(=O)Nc3cnccc3N3CCOCC3)n2)cc1` [Compound 292] came in with a concentration giving a half-maximal response (EC50) of 0.1 to 1 µM.

With `NCCc1ccc(-c2cnc(N)c(C(=O)Nc3cnccc3-n3ccnc3-c3ccccc3)n2)cc1` [Compound 145], the IC50 against TGFBR2 fell in the range of 0.1 to 1 µM.

In test [1], `Nc1ncc(-c2ccc(N(CCO)CCNC(=O)OCc3ccccc3)cc2)nc1C(=O)Nc1cnccc1N1CCOCC1` [Compound 293] gave an EC50 of 0.1 to 1 µM.

Molecule `Cc1cc(CNC(=O)OCc2ccccc2)ccc1-c1cnc(N)c(C(=O)Nc2cnccc2N2CCOCC2)n1` [Compound 60] yielded an EC50 in test [1] of 0.1 to 1 µM.

As to `COC(=O)[C@@H](C)N(C)c1ccc(-c2cnc(N)c(C(=O)Nc3cnccc3N3CCOCC3)n2)cc1` [Compound 294], the EC50 in test [1] lay in the range of 0.1 to 1 µM.

The molecule `CC(C)(C)OC(=O)N1CC[C@@H](Nc2ccc(-c3cnc(N)c(C(=O)Nc4cnccc4N4CCOCC4)n3)cc2)C1` [Compound 282] yielded an EC50 in test [1] of 0.1 to 1 µM.

In the case of `CC(C)(C)OC(=O)N[C@H]1CCCN(c2ccc(-c3cnc(N)c(C(=O)Nc4cnccc4N4CCOCC4)n3)cc2)C1` [Compound 286], the half-maximal effective concentration (EC50) in test [1] lay within 0.1 to 1 µM.

`CN(c1ccc(-c2cnc(N)c(C(=O)Nc3cnccc3N3CCOCC3)n2)cc1)C1CCNCC1` [Compound 301] yielded an EC50 in test [1] of 0.05 to 0.1 µM.

As for `N#Cc1cnccc1-c1ccncc1NC(=O)c1nc(-c2ccc(CCNC(=O)OCc3ccccc3)cc2)cnc1N` [Compound 10], in test [1], the concentration giving a half-maximal response (EC50) was above 1 µM.

Turning to `CN(C)C1CCN(c2ccc(-c3cnc(N)c(C(=O)Nc4cnccc4N4CCOCC4)n3)cc2)CC1` [Compound 290], the EC50 in test [1] was below 0.05 µM.

For the molecule `CC(C)(C)OC(=O)N[C@@H](CCCCN)C(=O)NCCc1ccc(-c2cnc(N)c(C(=O)Nc3cnccc3N3CCOCC3)n2)cc1` [Compound 12], in test [1], the EC50 lay within 0.1 to 1 µM.

In turn, `COC(=O)[C@H](C)N(C)c1ccc(-c2cnc(N)c(C(=O)Nc3cnccc3N3CCOCC3)n2)cc1` [Compound 297] displayed an EC50 in test [1] of 0.1 to 1 µM.

Take `NCCc1ccc(-c2cnc(N)c(C(=O)Nc3cncc(-c4ccccc4[N+](=O)[O-])c3)n2)cc1` [Compound 147]: the IC50 against TGFBR2 lay within 0.05 to 0.1 µM.

`C[C@H](CO)N(C)c1ccc(-c2cnc(N)c(C(=O)Nc3cnccc3N3CCOCC3)n2)cc1` [Compound 296] yielded an EC50 in test [1] below 0.05 µM.

On to `Nc1ncc(-c2ccc(N3CCN(CCO)CC3)cc2)nc1C(=O)Nc1cnccc1N1CCOCC1` [Compound 289], for which, in test [1], the EC50 lay in the range of 0.05 to 0.1 µM.

In test [1], `C[C@@H](C(=O)O)N(C)c1ccc(-c2cnc(N)c(C(=O)Nc3cnccc3N3CCOCC3)n2)cc1` [Compound 298] came in with an EC50 of 0.1 to 1 µM.

Consider `Nc1ncc(-c2ccc([C@@H]3CNC[C@H]3C(=O)O)cc2)nc1C(=O)Nc1cnccc1N1CCOCC1` [Compound 231], for which, in test [1], the EC50 is above 1 µM.

With `Nc1ncc(-c2ccc(N3CCC[C@@H](N)C3)cc2)nc1C(=O)Nc1cnccc1N1CCOCC1` [Compound 283], the EC50 in test [1] was 0.1 to 1 µM.

`Nc1ncc(-c2ccc(OCCNC(=O)OCc3ccccc3)cc2)nc1C(=O)Nc1cnccc1N1CCOCC1` [Compound 45]: the IC50 at TGFBR2 is below 0.05 µM.

`Nc1ncc(-c2ccc(CCNC(=O)[C@H](CCC(=O)O)NC(=O)OCc3ccccc3)cc2)nc1C(=O)Nc1cnccc1N1CCOCC1` [Compound 11] had an EC50 in test [1] above 1 µM.

Turning to `CC(=O)c1ccc(C(=O)NCCc2ccc(-c3cnc(N)c(C(=O)Nc4cnccc4N4CCOCC4)n3)cc2)cc1` [Compound 58], in test [1], the EC50 lay in the range of 0.1 to 1 µM.

`CN(c1ccc(-c2cnc(N)c(C(=O)Nc3cnccc3N3CCOCC3)n2)cc1)[C@@H]1CCN(C(=O)OC(C)(C)C)C1` [Compound 300] registered an EC50 in test [1] of 0.1 to 1 µM.

`CN(c1ccc(-c2cnc(N)c(C(=O)Nc3cnccc3N3CCOCC3)n2)cc1)C1CCN(C(=O)OC(C)(C)C)CC1` [Compound 291] returned an EC50 in test [1] of 0.1 to 1 µM.

Regarding `COCCNc1ccncc1NC(=O)c1nc(-c2ccc(CCNC(=O)OCc3ccccc3)cc2)cnc1N` [Compound 99], the EC50 in test [1] was above 1 µM.

With `COCCNc1ccncc1NC(=O)c1nc(-c2ccc(CCN)cc2)cnc1N` [Compound 100], in test [1], the EC50 was above 1 µM.

`CC(S)CCC(=O)NCC(C)Oc1ccc(-c2cnc(N)c(C(=O)Nc3cnccc3N3CCOCC3)n2)cc1` (stereo not shown) [Compound 287] gave an EC50 in test [1] of 0.1 to 1 µM.

`Nc1ncc(-c2ccc(N[C@@H]3CCNC3)cc2)nc1C(=O)Nc1cnccc1N1CCOCC1` [Compound 281]: the EC50 in test [1] fell in the range of 0.1 to 1 µM.
